Laboratory results: the supplement of paper PMC10307832

How the values were obtained:
Experiment in all cases: relative viability (nuclei count vs DMSO), 5 days (fraction); higher = more cells survive
[1] = compound: C1CSC2=C(C(=O)N1)SC3=C2C=C(C=C3)O [kb NB 142-70] + CC(=O)c1c(C)c2cnc(Nc3ccc(N4CCNCC4)cn3)nc2n(C2CCCC2)c1=O [Palbociclib] (partner 0.5 µM)
Outline: (§1)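 Relative viability was taken as the ratio of nuclei in treated wells to nuclei in vehicle wells. Lung cancer cell lines in 1536-well plates received compounds by pin tool one day after seeding, either one drug alone or a fixed anchor-drug dose plus five library-drug doses (not always all listed) in √10 steps. Nuclei were counted on 4× images after 5 days of treatment, and values are medians of duplicate plates.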

[2] = compound: C1CSC2=C(C(=O)N1)SC3=C2C=C(C=C3)O [kb NB 142-70] + CCNC(=O)c1noc(-c2cc(C(C)C)c(O)cc2O)c1-c1ccc(CN2CCOCC2)cc1 [Luminespib] (partner 0.01 µM)
Outline: as §1

[3] = compound: NCC(=O)Nc1ccc(-n2nc(C(F)(F)F)cc2-c2ccc3c(ccc4ccccc43)c2)cc1 + CC(=O)Nc1cccc(-n2c(=O)n(C3CC3)c(=O)c3c(Nc4ccc(I)cc4F)n(C)c(=O)c(C)c32)c1 [Trametinib] (partner 0.02 µM)
Outline: as §1

[4] = compound: NCC(=O)Nc1ccc(-n2nc(C(F)(F)F)cc2-c2ccc3c(ccc4ccccc43)c2)cc1 + CC(=O)c1c(C)c2cnc(Nc3ccc(N4CCNCC4)cn3)nc2n(C2CCCC2)c1=O [Palbociclib] (partner 0.5 µM)
Outline: as §1

Row | Cell Line | relative viability ([1]; first compound 0.1 µM) | relative viability ([1]; first compound 1 µM) | relative viability ([1]; first compound 3.162 µM) | relative viability ([2]; first compound 0.1 µM) | relative viability ([2]; first compound 1 µM) | relative viability ([2]; first compound 3.162 µM) | relative viability ([3]; first compound 0.02 µM) | relative viability ([3]; first compound 0.06325 µM) | relative viability ([3]; first compound 0.2 µM) | relative viability ([3]; first compound 0.6325 µM) | relative viability ([3]; first compound 2 µM) | relative viability ([4]; first compound 0.02 µM) | relative viability ([4]; first compound 0.06325 µM) | relative viability ([4]; first compound 0.2 µM) | relative viability ([4]; first compound 0.6325 µM) | relative viability ([4]; first compound 2 µM)
1 | 201T | 0.35 | 0.361 | 0.394 | 1.04 | 1.03 | 1.08 | 0.692 | 0.717 | 0.747 | 0.725 | 0.696 | 0.342 | 0.374 | 0.366 | 0.363 | 0.351
2 | A-427 | 0.505 | 0.555 | 0.507 | 0.845 | 1.12 | 0.584 | 0.722 | 0.787 | 0.866 | 0.721 | 0.783 | 0.502 | 0.567 | 0.527 | 0.526 | 0.534
3 | ABC-1 | 0.425 | 0.83 | 0.534 | 0.536 | 0.487 | 0.336 |  |  |  |  |  | 0.725 | 0.592 |  | 0.807 | 0.658
4 | BEN | 0.443 | 0.459 | 0.488 | 0.412 | 1.13 | 0.281 | 0.861 | 1.15 | 1.05 | 0.938 | 1.11 | 0.441 | 0.475 | 0.473 | 0.49 | 0.465
5 | CAL-12T | 0.48 | 0.363 | 0.188 | 0.56 | 0.611 | 0.25 | 0.304 | 0.401 | 0.394 | 0.339 | 0.362 | 0.527 | 0.481 | 0.462 | 0.588 | 0.423
6 | COR-L23 | 0.324 | 0.317 | 0.186 | 0.665 | 0.524 | 0.159 | 0.593 | 0.637 | 0.568 | 0.549 | 0.491 | 0.297 | 0.293 | 0.346 | 0.261 | 0.245
7 | COR-L 105 | 0.432 | 0.369 | 0.433 | 0.603 | 0.634 | 0.712 | 0.456 | 0.482 | 0.491 | 0.416 | 0.432 | 0.4 | 0.399 | 0.411 | 0.413 | 0.432
8 | ChaGo-K-1 | 0.872 | 0.803 | 0.838 | 0.664 | 0.638 | 0.448 | 0.832 | 0.903 | 0.882 | 0.83 | 0.842 | 0.919 | 0.929 | 0.933 | 0.973 | 0.917
9 | EKVX | 0.361 | 0.393 | 0.37 | 0.81 | 0.857 | 0.943 | 0.408 | 0.356 | 0.428 | 0.366 | 0.369 | 0.436 | 0.417 | 0.397 | 0.348 | 0.382
10 | EMC-BAC-2 | 0.524 | 0.553 | 0.516 | 1.25 | 1.17 | 0.972 | 0.824 | 0.909 | 0.877 | 0.96 | 0.887 | 0.514 | 0.513 | 0.537 | 0.518 | 0.532
11 | EPLC-272H | 0.324 | 0.329 | 0.28 | 0.361 | 0.216 | 0.157 | 0.269 | 0.297 | 0.305 | 0.299 | 0.303 | 0.332 | 0.306 | 0.36 | 0.335 | 0.326
12 | H3255 | 0.323 | 0.314 | 0.316 | 0.881 | 0.845 | 1.12 | 0.642 | 0.579 | 0.592 | 0.629 | 0.674 | 0.35 | 0.313 | 0.314 | 0.322 | 0.304
13 | HARA | 0.216 | 0.327 | 0.259 | 0.625 | 0.769 | 0.456 | 0.792 | 0.771 | 0.586 | 0.659 | 0.919 | 0.258 | 0.173 | 0.287 | 0.294 | 0.256
14 | HCC-15 | 0.699 | 0.699 | 0.588 | 0.195 | 0.605 | 0.393 | 0.386 | 0.416 | 0.447 | 0.369 | 0.363 | 0.714 | 0.732 | 0.763 | 0.742 | 0.749
15 | HCC-44 | 0.96 | 1 | 1.03 | 1.03 | 1 | 0.405 | 0.792 | 1.1 | 1.05 | 1.11 | 1.02 | 1.04 | 0.961 | 0.994 | 0.977 | 0.962
16 | HCC-78 | 0.446 | 0.443 | 0.412 |  |  |  | 0.755 | 0.807 | 0.804 | 0.788 | 0.705 | 0.541 | 0.482 | 0.526 | 0.403 | 0.496
17 | HCC-366 | 0.404 | 0.477 | 0.356 |  |  |  | 0.361 | 0.408 | 0.467 | 0.354 | 0.271 | 0.399 | 0.449 | 0.378 | 0.394 | 0.355
18 | HCC-827 | 0.525 | 0.459 | 0.396 | 0.589 | 0.59 | 0.373 | 0.572 | 0.584 | 0.58 | 0.553 | 0.521 | 0.501 | 0.545 | 0.509 | 0.486 | 0.504

Row | Cell Line | relative viability ([1]; first compound 0.1 µM) | relative viability ([1]; first compound 1 µM) | relative viability ([1]; first compound 3.162 µM) | relative viability ([2]; first compound 0.1 µM) | relative viability ([2]; first compound 1 µM) | relative viability ([2]; first compound 3.162 µM) | relative viability ([3]; first compound 0.02 µM) | relative viability ([3]; first compound 0.06325 µM) | relative viability ([3]; first compound 0.2 µM) | relative viability ([3]; first compound 0.6325 µM) | relative viability ([3]; first compound 2 µM) | relative viability ([4]; first compound 0.02 µM) | relative viability ([4]; first compound 0.06325 µM) | relative viability ([4]; first compound 0.2 µM) | relative viability ([4]; first compound 0.6325 µM) | relative viability ([4]; first compound 2 µM)
19 | HOP-62 | 0.496 | 0.473 | 0.441 | 0.971 | 0.884 | 1.06 | 0.395 | 0.378 | 0.378 | 0.368 | 0.336 | 0.453 | 0.384 | 0.42 | 0.452 | 0.545
20 | LC-2-ad | 0.457 | 0.475 | 0.513 | 0.997 | 1.04 | 0.699 | 0.952 | 0.971 | 0.951 | 0.95 | 0.935 | 0.507 | 0.462 | 0.463 | 0.469 | 0.473
21 | LCLC-97TM1 | 0.229 | 0.216 | 0.193 | 0.72 | 0.76 | 0.692 | 0.21 | 0.215 | 0.213 | 0.198 | 0.189 | 0.249 | 0.205 | 0.22 | 0.233 | 0.199
22 | LCLC-103H | 0.47 | 0.475 | 0.504 | 0.956 | 0.997 | 0.903 | 0.67 | 0.688 | 0.694 | 0.67 | 0.618 | 0.41 | 0.503 | 0.483 | 0.413 | 0.504
23 | LK-2 | 0.661 | 0.476 | 0.352 | 0.206 | 0.215 | 0.173 | 0.659 | 0.751 | 0.703 | 0.826 | 0.686 | 0.538 | 0.831 | 0.539 | 0.675 | 0.636
24 | LOU-NH91 | 0.494 | 0.536 | 0.417 | 0.312 | 0.316 | 0.286 | 0.847 | 0.832 | 0.812 | 0.803 | 0.795 | 0.647 | 0.519 | 0.528 | 0.541 | 0.582
25 | LU99A | 0.379 | 0.447 | 0.413 | 0.272 | 0.246 | 0.265 | 0.548 | 0.678 | 0.569 | 0.56 | 0.48 | 0.418 | 0.474 | 0.434 | 0.487 | 0.438
26 | LXF-289 | 0.578 | 0.613 | 0.567 | 0.78 | 0.621 | 0.49 | 0.716 | 0.705 | 0.67 | 0.672 | 0.68 | 0.591 | 0.599 | 0.59 | 0.588 | 0.628
27 | NCI-H23 | 0.409 | 0.471 | 0.28 | 0.231 | 0.207 | 0.201 | 0.313 | 0.456 | 0.448 | 0.422 | 0.352 | 0.493 | 0.548 | 0.535 | 0.507 | 0.553
28 | NCI-H322M | 0.541 | 0.511 | 0.505 | 0.767 | 0.947 | 0.693 | 0.521 | 0.482 | 0.537 | 0.5 | 0.547 | 0.51 | 0.502 | 0.388 | 0.505 | 0.493
29 | NCI-H358 | 0.127 | 0.136 | 0.0896 | 0.278 | 0.152 | 0.148 | 0.127 | 0.127 | 0.133 | 0.138 | 0.15 | 0.158 | 0.111 | 0.136 | 0.122 | 0.145
30 | NCI-H441 | 0.237 | 0.209 | 0.169 | 0.397 | 0.353 | 0.244 | 0.394 | 0.436 | 0.507 | 0.523 | 0.555 | 0.242 | 0.258 | 0.265 | 0.228 | 0.25
31 | NCI-H460 | 0.166 | 0.233 | 0.171 | 0.0325 | 0.0315 | 0.0216 | 0.19 | 0.175 | 0.165 | 0.145 | 0.18 | 0.143 | 0.2 | 0.251 | 0.171 | 0.2
32 | NCI-H596 |  |  |  | 0.945 | 1.11 | 0.876 | 0.804 | 0.725 | 0.827 | 0.83 | 1.25 |  |  |  |  | 
33 | NCI-H1563 |  |  |  | 0.597 | 0.498 | 0.538 |  |  |  |  |  |  |  |  |  | 
34 | NCI-H1623 |  |  |  | 0.427 | 0.476 | 0.594 |  |  |  |  |  |  |  |  |  | 
35 | NCI-H1648 | 0.276 | 0.275 | 0.206 |  |  |  | 0.414 | 0.533 | 0.573 | 0.563 | 0.506 | 0.283 | 0.267 | 0.268 | 0.281 | 0.264
